Broadly, the melting point is the temperature of the solid-liquid transition. The IC50 is the concentration that gives 50% inhibition.

The test system of data set [1] is A549 (lung cancer) cell line. Put plainly: MTT cytotoxicity assay, A549. The conditions noted are these: for inhibition: 48 h, triplicate, mean ± s.e.m.; for IC50: read-out: IC50 A549, MTT, 48 h drug treatment, A549. On the technique in general: Tetrazolium assays rely on reduction of a dye to a coloured formazan, in cell work by metabolically active cells.
Description: Two concentrations (10 and 30 µM in triplicate) of the derivatives were utilized and after 48 h of drug treatment the results were analyzed. The obtained results were tabulated as mean ± s.e.m. With standard errors below 10%, the reproducibility between replicate wells is within the acceptable values.
The cytotoxic activities of all newly prepared derivatives were assessed in monolayer cultures by utilizing MTT assay. […] The tested derivatives were prepared prior to the experiment by dissolving in 0.1% DMSO and diluted with medium. The cells were then exposed to two concentrations of drugs (10 and 30 µM) in the volume of 100 µM/well. Cells in the control wells received the same volume of medium comprising 0.1% DMSO. After 24 h, the medium was removed and cell cultures were incubated with 100 ml MTT reagent for 5 h at 37°C. The known number of cells was incubated in a 5% CO2 incubator at 37°C in the presence of different concentrations of test compounds. After 48 h of drug incubation, the MTT solution was added in each well and the absorbance was measured by using a microplate reader at 490 nm. The experiment was performed in triplicate. Cell survival was calculated as the percentage of MTT inhibition as % growth inhibition = 100 − (mean OD of individual test group/mean OD of each control group) × 100.
The mark [2] stands for this setting: read-out: Cells viability (%) A549, 10 μM, 10 μM.
[3] abbreviates: read-out: Cells viability (%) A549, 30 μM, 30 μM.

Like-named read-outs stand apart in the source and are kept apart here.

`Cc1nc2ccccc2c(=O)n1-c1cccc(N)c1` came in with a melting point of 121 to 123 °C.
Take `Cc1nc2ccccc2c(=O)n1-c1ccccc1N`: the melting point is 109 to 111 °C.
`Cc1nc2ccccc2c(=O)n1[C@H]1CC[C@H](n2c(C)nc3ccccc3c2=O)CC1` [Compound 3a, 3,3′-((1R,4R)-Cyclohexane-1,4-diyl)bis(2-methylquinazolin-4(3H)-one)] had a melting point of 273 to 275 °C. Moreover, in data set [1] (setting [2]), the inhibition was 60.2 ± 1.56%. Further, the inhibition in data set [1] (setting [3]) came to 97.2 ± 0.41%. Moreover, the IC50 in data set [1] turned out to be 8.15 µM.
The corresponding values for `Cc1ccc2nc(C)n([C@H]3CC[C@H](n4c(C)nc5ccc(C)cc5c4=O)CC3)c(=O)c2c1` [Compound 3b, 3,3′-((1R,4R)-Cyclohexane-1,4-diyl)bis(2,6-dimethylquinazolin-4(3H)-one)] are 280 to 281 °C, 39.3 ± 2.76%, 90.12 ± 0.25% and 15.7 µM.
`Cc1nc2ccc(Cl)cc2c(=O)n1[C@H]1CC[C@H](n2c(C)nc3ccc(Cl)cc3c2=O)CC1` [Compound 3c, 3,3′-((1R,4R)-Cyclohexane-1,4-diyl)bis(6-chloro-2-methylquinazolin-4(3H)-one)] gave a melting point of 311 to 313 °C. Further, the inhibition in data set [1] (setting [2]) turned out to be 61.1 ± 1.82%. The inhibition in data set [1] (setting [3]) stood at 96.98 ± 0.4%. In data set [1], the 50% inhibitory concentration (IC50) was determined as 8.14 µM.
The corresponding values for `Cc1nc2ccc(F)cc2c(=O)n1[C@H]1CC[C@H](n2c(C)nc3ccc(F)cc3c2=O)CC1` [Compound 3d, 3,3'-((1R,4R)-Cyclohexane-1,4-diyl)bis(6-fluoro-2-methylquinazolin-4(3H)-one)] are 262 to 264 °C, 67.49 ± 0.27%, 90 ± 43% and 8.11 µM.
The like results for `Cc1nc2ccc([N+](=O)[O-])cc2c(=O)n1[C@H]1CC[C@H](n2c(C)nc3ccc([N+](=O)[O-])cc3c2=O)CC1` [Compound 3e, 3,3′-((1R,4R)-Cyclohexane-1,4-diyl)bis(2-methyl-6-nitroquinazolin-4(3H)-one)] were, in that order, 301 to 304 °C, 77.1 ± 1.78%, 82.8 ± 1.64% and 5.34 µM.
The like results for `Cc1nc2ccccc2c(=O)n1Cc1ccc(Cn2c(C)nc3ccccc3c2=O)cc1` [Compound 4a, 3,3′-(1,4-Phenylenebis(methylene))bis(2-methylquinazolin-4(3H)-one)] were, in that order, 277 to 279 °C, 60.4 ± 3.31%, 62.9 ± 1.45% and 6.11 µM.
Consider `Cc1ccc2nc(C)n(Cc3ccc(Cn4c(C)nc5ccc(C)cc5c4=O)cc3)c(=O)c2c1` [Compound 4b, 3,3′-(1,4-Phenylenebis(methylene))bis(2,6-dimethylquinazolin-4(3H)-one)], for which the melting point lay within 285 to 287 °C. Further, the inhibition in data set [1] (setting [2]) worked out at 76 ± 2.21%. Moreover, the inhibition in data set [1] (setting [3]) is 78.7 ± 1.76%. Also, in data set [1], the 50% inhibitory concentration (IC50) came to 6.79 µM.
For `Cc1nc2ccc(Cl)cc2c(=O)n1Cc1ccc(Cn2c(C)nc3ccc(Cl)cc3c2=O)cc1` [Compound 4c, 3,3′-(1,4-Phenylenebis(methylene))bis(6-chloro-2-methylquinazolin-4(3H)-one)], the melting point was in the range of 327 to 330 °C. In addition, the inhibition in data set [1] (setting [2]) was found to be 79.5 ± 2.61%. For the same compound, the inhibition in data set [1] (setting [3]) was found to be 81.8 ± 0.87%. Moreover, the IC50 in data set [1] is 6.07 µM.
The corresponding values for `Cc1nc2ccc(F)cc2c(=O)n1Cc1ccc(Cn2c(C)nc3ccc(F)cc3c2=O)cc1` [Compound 4d, 3,3′-(1,4-Phenylenebis(methylene))bis(6-fluoro-2-methylquinazolin-4(3H)-one)] are 217 to 219 °C, 94.29 ± 0.39%, 96.09 ± 0.244% and 5.55 µM.
The corresponding values for `Cc1nc2ccc([N+](=O)[O-])cc2c(=O)n1Cc1ccc(Cn2c(C)nc3ccc([N+](=O)[O-])cc3c2=O)cc1` [Compound 4e, 3,3′-(1,4-Phenylenebis(methylene))bis(2-methyl-6-nitroquinazolin-4(3H)-one)] are 350 to 353 °C, 80.2 ± 2.1%, 87 ± 1.45% and 2.98 µM.
Regarding `Cc1nc2ccccc2c(=O)n1CCn1c(C)nc2ccccc2c1=O` [Compound 5a, 3,3′-(Ethane-1,2-diyl)bis(2-methylquinazolin-4(3H)-one)], the melting point is 190 to 192 °C. Besides, the inhibition in data set [1] (setting [2]) is 32.4 ± 2.91%. In data set [1] (setting [3]), the inhibition came to 88.7 ± 1.83%. In data set [1], the 50% inhibitory concentration (IC50) was 12.3 µM.
The like results for `Cc1ccc2nc(C)n(CCn3c(C)nc4ccc(C)cc4c3=O)c(=O)c2c1` [Compound 5b, 3,3′-(Ethane-1,2-diyl)bis(2,6-dimethylquinazolin-4(3H)-one)] were, in that order, 211 to 212 °C, 40 ± 2.11%, 89.7 ± 1.76% and 15.7 µM.
The like results for `Cc1nc2ccc(Cl)cc2c(=O)n1CCn1c(C)nc2ccc(Cl)cc2c1=O` [Compound 5c, 3,3′-(Ethane-1,2-diyl)bis(6-chloro-2-methylquinazolin-4(3H)-one)] were, in that order, 244 to 246 °C, 61.9 ± 2.34%, 82.1 ± 1.93% and 7.98 µM.
For the compound `Cc1nc2ccc(F)cc2c(=O)n1CCn1c(C)nc2ccc(F)cc2c1=O` [Compound 5d, 3,3′-(Ethane-1,2-diyl)bis(6-fluoro-2-methylquinazolin-4(3H)-one)], the melting point was in the range of 219 to 221 °C. Besides, the inhibition in data set [1] (setting [2]) turned out to be 54.49 ± 0.27%. For the same compound, the inhibition in data set [1] (setting [3]) stood at 90 ± 43%. Also, the half-inhibitory concentration (IC50) in data set [1] was 7.95 µM.
For the compound `Cc1nc2ccc([N+](=O)[O-])cc2c(=O)n1CCn1c(C)nc2ccc([N+](=O)[O-])cc2c1=O` [Compound 5e, 3,3′-(Ethane-1,2-diyl)bis(2-methyl-6-nitroquinazolin-4(3H)-one)], the melting point lay within 278 to 279 °C. Further, the inhibition in data set [1] (setting [2]) was 91.54 ± 0.56%. For the same compound, the inhibition in data set [1] (setting [3]) came to 97.83 ± 0.24%. Further, in data set [1], the IC50 is 5.05 µM.
For the compound `Cc1nc2ccccc2c(=O)n1-c1ccc(-n2c(C)nc3ccccc3c2=O)cc1` [Compound 6a, 3,3′-(1,4-Phenylene)bis(2-methylquinazolin-4(3H)-one)], the melting point is 178 to 180 °C. The inhibition in data set [1] (setting [2]) amounted to 54.49 ± 0.27%. In addition, the inhibition in data set [1] (setting [3]) was determined as 90 ± 43%. Also, the IC50 in data set [1] was 8.41 µM.
The like results for `Cc1ccc2nc(C)n(-c3ccc(-n4c(C)nc5ccc(C)cc5c4=O)cc3)c(=O)c2c1` [Compound 6b, 3,3′-(1,4-Phenylene)bis(2,6-dimethylquinazolin-4(3H)-one)] were, in that order, 263 to 265 °C, 59.2 ± 1.53%, 95.12 ± 0.22% and 8.13 µM.
The corresponding values for `Cc1nc2ccc(Cl)cc2c(=O)n1-c1ccc(-n2c(C)nc3ccc(Cl)cc3c2=O)cc1` [Compound 6c, 3,3′-(1,4-Phenylene)bis(6-chloro-2-methylquinazolin-4(3H)-one)] are 287 to 290 °C, 91.98 ± 0.49%, 98.02 ± 0.21% and 5.15 µM.
As for `Cc1nc2ccc(F)cc2c(=O)n1-c1ccc(-n2c(C)nc3ccc(F)cc3c2=O)cc1` [Compound 6d, 3,3′-(1,4-Phenylene)bis(6-fluoro-2-methylquinazolin-4(3H)-one)], the melting point is 269 to 272 °C. The inhibition in data set [1] (setting [2]) amounted to 82.7 ± 1.67%. Further, the inhibition in data set [1] (setting [3]) was 81.78 ± 0.45%. In data set [1], the IC50 is 4.54 µM.
With `Cc1nc2ccc([N+](=O)[O-])cc2c(=O)n1-c1ccc(-n2c(C)nc3ccc([N+](=O)[O-])cc3c2=O)cc1` [Compound 6e, 3,3′-(1,4-Phenylene)bis(2-methyl-6-nitroquinazolin-4(3H)-one)], the melting point fell in the range of 307 to 310 °C. In addition, in data set [1] (setting [2]), the inhibition was found to be 95.4 ± 0.24%. In addition, in data set [1] (setting [3]), the inhibition came to 97.6 ± 0.21%. The IC50 in data set [1] came to 3.43 µM.
Compound `Cc1nc2ccccc2c(=O)n1-c1ccc(S(=O)(=O)c2ccc(-n3c(C)nc4ccccc4c3=O)cc2)cc1` [Compound 7a, 3,3′-(Sulfonylbis(4,1-phenylene))bis(2-methylquinazolin-4(3H)-one)] displayed a melting point of 294 to 297 °C. The inhibition in data set [1] (setting [2]) was determined as 82.7 ± 1.63%. Further, the inhibition in data set [1] (setting [3]) turned out to be 82.1 ± 0.5%. Also, in data set [1], the IC50 amounted to 4.58 µM.
Turning to `Cc1ccc2nc(C)n(-c3ccc(S(=O)(=O)c4ccc(-n5c(C)nc6ccc(C)cc6c5=O)cc4)cc3)c(=O)c2c1` [Compound 7b, 3,3′-(Sulfonylbis(4,1-phenylene))bis(2,6-dimethylquinazolin-4(3H)-one)], the melting point lay in the range of 310 to 313 °C. For the same compound, the inhibition in data set [1] (setting [2]) is 53.1 ± 2.2%. Also, in data set [1] (setting [3]), the inhibition was determined as 86.8 ± 1.19%. For the same compound, in data set [1], the IC50 was determined as 5.77 µM.
In turn, `Cc1nc2ccc(Cl)cc2c(=O)n1-c1ccc(S(=O)(=O)c2ccc(-n3c(C)nc4ccc(Cl)cc4c3=O)cc2)cc1` [Compound 7c, 3,3′-(Sulfonylbis(4,1-phenylene))bis(6-chloro-2-methylquinazolin-4(3H)-one)] had a melting point of 332 to 335 °C. Moreover, in data set [1] (setting [2]), the inhibition is 72.3 ± 0.78%. Also, in data set [1] (setting [3]), the inhibition worked out at 88.43 ± 0.19%. In addition, the IC50 in data set [1] came out at 4.21 µM.
`Cc1nc2ccc(F)cc2c(=O)n1-c1ccc(S(=O)(=O)c2ccc(-n3c(C)nc4ccc(F)cc4c3=O)cc2)cc1` [Compound 7d, 3,3′-(Sulfonylbis(4,1-phenylene))bis(6-fluoro-2-methylquinazolin-4(3H)-one)] gave a melting point of 301 to 303 °C. In addition, the inhibition in data set [1] (setting [2]) was determined as 96.46 ± 0.65%. In addition, the inhibition in data set [1] (setting [3]) was determined as 96.68 ± 0.17%. In data set [1], the half-inhibitory concentration (IC50) came to 3.45 µM.
Regarding `Cc1nc2ccccc2c(=O)n1-c1ccccc1-n1c(C)nc2ccccc2c1=O` [Compound 9, 3,3′-(1,2-Phenylene)bis(2-methylquinazolin-4(3H)-one)], the melting point was 187 to 190 °C.
In the case of `CNC(=O)c1cc(Oc2ccc(NC(=O)Nc3ccc(Cl)c(C(F)(F)F)c3)cc2)ccn1` [Sorafenib, sorafenib, reference compound], the inhibition worked out at 89.8 ± 1.14% in data set [1] (setting [2]) and 91.2 ± 1.44% in data set [1] (setting [3]). In data set [1], the IC50 is 5.2 µM.

The values above are taken from PMC6458391, “Deep eutectic solvent for an expeditious sono-synthesis of novel series of bis-quinazolin-4-one derivatives as potential anti-cancer agents” (Royal Society Open Science, 2019).
